Holding throughout (assay): NCI-60 cell line screen, 48 h
For experiment [1], the system named is HCT-15 colon.
The subject of experiment [2] is SK-MEL-5 melanoma.
The subject of experiment [3] is NCI-H522 lung.
Experiment [4] relates to M14 melanoma.
Experiment [5] concerns MOLT-4 leukemia.
In experiment [6] the test system is NCI-H460 lung.
Experiment [7] concerns OVCAR-4 ovarian.
For experiment [8], the system named is HL-60(TB) leukemia.
For experiment [9], the system named is LOX IMVI melanoma.
Experiment [10] deals with BT-549 breast.

Structures are written as SMILES. Values joined by “and” are separate entries in the source; they are usually repeats but may differ in a detail not shown here. Equal entries are not always repeated.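 Method: 48-hour compound exposure of cells in 96-well plates, five concentrations, linear interpolation of endpoints. GI50: concentration for 50% inhibition of growth. At the TGI there is no net growth.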 Bounds are passed on as bounds.

Take `O=C(Nc1ccc2[nH]c(C(=O)N3CC(CCl)c4c3cc([N+](=O)[O-])c3ccccc43)cc2c1)c1cc2ccccc2o1` (centres undefined): the GI50 in experiment [1] is above 1100 µM; in experiment [2] it was above 1100 µM; in experiment [3] it was above 1100 µM; in [4], above 1100 µM; in experiment [5], 180 µM; in experiment [6] it was 21 µM. Besides, the GI50 is above 1100 µM in experiment [7], 33.2 µM in experiment [8], above 1100 µM in [9] and above 1100 µM in [10]. In addition, the TGI in experiment [1], in experiment [2], in experiment [3], in experiment [4], in [5] and in experiment [6] was above 1100 µM in each case. The TGI in [7] was above 1100 µM; in experiment [8], 380 µM; in experiment [9] it was above 1100 µM; in experiment [10], above 1100 µM.
As for `CC(=O)C1COC(O)C1C` (centres undefined), the TGI in experiment [1] turned out to be 44.4 µM; in experiment [2], 29.7 µM; in experiment [4] it was 61.1 µM; in [5], 99.2 µM; in experiment [6], 44.5 µM; in [8], 39.7 µM. Moreover, the figures for the TGI in experiment [9] and in [10] were 39.4 µM and above 100 µM, respectively.
On to `CCN(CC)CCCC(C)Nc1c2ccc(Cl)cc2nc2cc(OC)c(OC)cc12` (centres undefined), for which the GI50 in experiment [1] was 1.2 µM; in experiment [2], 1.81 µM; in [3] it was 2.35 µM; in experiment [4] it was 1.88 µM; in experiment [5] it was 0.594 µM; in experiment [6], 1.3 µM. Moreover, the GI50 in experiment [7] is 1.34 µM; in experiment [8], 2.81 µM; in [9], 1.23 µM; in experiment [10], 3.87 µM. Also, the TGI in [1] amounted to 3.49 µM; in experiment [2] it was 3.21 µM; in experiment [3] it was 5.76 µM; in experiment [4] it was 3.56 µM; in experiment [5], 12.6 µM; in experiment [6], 4.05 µM. Besides, the TGI in experiment [7] stood at 3.33 µM; in [8], 9.31 µM; in experiment [9], 2.64 µM; in [10], 17.8 µM.
As for `COc1cc(F)cc([C@@H](CO)NC(=O)[C@@H](C)N2Cc3ccc(-c4nc(NC5CCOCC5)ncc4Cl)cc3C2=O)c1`, the GI50 in experiment [1] was 6.08 µM; in experiment [2], 0.405 µM; in experiment [3] it was 13.4 µM; in experiment [4] it was below 0.01 µM; in experiment [5], 7.42 µM; in [6] it was 6.14 µM. Also, the GI50 was 7.91 µM in experiment [7], below 0.01 µM in [8], below 0.0181 µM in [9] and 5.43 µM in experiment [10]. Moreover, the TGI in experiment [1] is above 86.7 µM; in experiment [2] it was 14.8 µM; in [3] it was 60.4 µM; in experiment [4] it was 0.962 µM; in experiment [5], 34.1 µM; in [6], above 100 µM. Moreover, the TGI in experiment [7] is above 91.6 µM; in [8] it was 0.859 µM; in experiment [9], 11.8 µM; in experiment [10], 24.3 µM.
For `O=C(/C=C/c1cccc([N+](=O)[O-])c1)c1ccc(O)c(CN2CCN(c3cc4c(cc3F)c(=O)c(C(=O)O)cn4C3CC3)CC2)c1`, the GI50 in experiment [2] was 1.7 µM; in experiment [5], 2.25 µM; in experiment [6], 3.43 µM; in experiment [7] it was 1.61 µM; in experiment [8] it was 2.24 µM; in [9], 0.364 µM. Besides, the GI50 in experiment [10] is 1.54 µM. Besides, the TGI in experiment [2] came out at 3.25 µM; in experiment [5], 8.41 µM; in [6], 19.3 µM; in experiment [7], 3.07 µM; in [8] it was 6.58 µM; in [9] it was 1.41 µM. Moreover, in experiment [10], the TGI turned out to be 3.31 µM.
On to `COc1cc2c(cc1OC)C(CC1(O)CCCCC1)N(S(=O)(=O)c1ccc(C)cc1)CC2` (centres undefined), for which the GI50 in [1], in experiment [2], in [3], in experiment [4], in experiment [5] and in experiment [6] was above 10 µM each time. Further, the GI50 in experiment [7], in [9] and in experiment [10] was above 10 µM each time. For the same molecule, the TGI in [1], in [2], in experiment [3], in experiment [4], in experiment [5] and in experiment [6] was above 10 µM throughout. Moreover, the TGI in experiment [7], in experiment [9] and in experiment [10] was above 10 µM throughout.
Turning to `NC(=S)N/N=C/c1ccc(O)cn1`, the GI50 in [1] is 22.1 µM and 13.3 µM; in experiment [2], 11.3 µM and 8.06 µM; in experiment [3] it was 10.2 µM and 1.41 µM and 7 µM; in experiment [4], 16.3 µM; in [5] it was 6.5 µM and 3.19 µM and 1.36 µM; in experiment [6] it was 29.1 µM. Besides, the GI50 in experiment [8] was 13.7 µM; in [9], 12.4 µM. The TGI was 35.6 µM and 25.6 µM in [4]; 595 µM in experiment [6]; 44.7 µM and 21 µM and 21.7 µM in experiment [8]; above 670 µM in [10].
For `O=C1c2cc(-c3ccccc3)ccc2-c2c1c1ccc([N+](=O)[O-])cc1c(=O)n2CCCBr`, the GI50 in experiment [1], in experiment [2], in experiment [3], in experiment [4], in experiment [5] and in experiment [6] was above 50 µM throughout. The GI50 in [7], in experiment [9] and in experiment [10] was above 50 µM in each case. For the same molecule, the TGI in [1], in experiment [2], in experiment [3], in experiment [4], in experiment [5] and in [6] was above 50 µM in each case. For the same molecule, the TGI in experiment [7], in experiment [9] and in experiment [10] was above 50 µM each time.
In the case of `CCCCOC(=O)c1ccc(NC(=O)CCl)cc1`, the GI50 was 1.43 µM in experiment [1]; 1.55 µM in experiment [2]; 1.74 µM in experiment [3]; 3.07 µM in experiment [4]; 1.82 µM in experiment [5]; 3.09 µM in [6]. The GI50 in [8] is 2.28 µM; in [9], 1.03 µM; in [10], 2.2 µM. Also, the TGI turned out to be 3.19 µM in experiment [1]; 3.04 µM in [2]; 3.57 µM in experiment [3]; 12.7 µM in [4]; 6.21 µM in experiment [5]; 10.7 µM in [6]. Besides, the TGI was determined as 4.86 µM in experiment [8], 2.35 µM in [9] and 7.7 µM in [10].
With `COc1ccc2c(c1)CCc1[nH]nc(-c3cc(OC)c(OC)c(OC)c3)c1-2`, the GI50 in experiment [1], in [2], in experiment [3], in [4], in [5] and in experiment [6] was below 0.01 µM in each case. Further, the GI50 in [7], in experiment [9] and in experiment [10] was below 0.01 µM each time. The TGI was 11.8 µM in [1]; below 0.01 µM in experiment [2]; below 0.01 µM in experiment [3]; 10.9 µM in experiment [4]; above 100 µM in experiment [5]; 2.06 µM in experiment [6]. In addition, the TGI stood at 56.5 µM in experiment [7], 11.8 µM in experiment [9] and 10.6 µM in experiment [10].
Take `O=C1C(Cl)=C(Nc2cccc(O)c2)C(=O)N1Cc1ccc(Cl)cc1`: the GI50 in [2] is 5.69 µM; in experiment [3], 3.18 µM; in experiment [4] it was 4.43 µM; in experiment [5] it was 1.35 µM; in experiment [6], 2.87 µM; in [7], 11.2 µM. Besides, the results for the GI50 in experiment [8], in [9] and in experiment [10] were 0.993 µM, 1.47 µM and 2.54 µM, respectively. Further, the TGI was 21.1 µM in experiment [2]; 21.7 µM in experiment [3]; 23.2 µM in experiment [4]; above 100 µM in experiment [5]; 14 µM in experiment [6]; above 100 µM in [7]. The TGI is 11 µM in [8], 6.34 µM in [9] and 16.6 µM in [10].
Take `O=C(O)c1ccc([S-])cc1.[Au+].c1ccc(CN2[CH-]N(Cc3ccccc3)C(c3ccccc3)=C2c2ccccc2)cc1`: the GI50 in [1] is 1.04 µM; in experiment [2], 0.281 µM; in [3], 0.285 µM; in experiment [4] it was 0.385 µM; in experiment [6], 0.328 µM; in experiment [7], 0.373 µM. Further, the GI50 is 0.321 µM in experiment [8], 0.311 µM in experiment [9] and 0.318 µM in experiment [10]. The TGI in [1] came out at 2.55 µM; in [2], 1.03 µM; in experiment [3], 1.2 µM; in experiment [4], 1.61 µM; in experiment [6] it was 1.28 µM; in experiment [7] it was 1.3 µM. Further, the TGI in experiment [8] was 1.29 µM; in experiment [9] it was 1.37 µM; in experiment [10], 1.42 µM.
Take `Cc1cc(Oc2cnc(=O)[nH]c2)cs1`: the TGI in experiment [1], in experiment [2], in [3], in experiment [4], in experiment [5] and in experiment [6] was above 100 µM in each case. In addition, the TGI in [8], in [9] and in [10] was above 100 µM in each case.
`CN1CCN(C(=O)c2c(NC(=O)NS(=O)(=O)c3ccccc3)sc3c2CCCCC3)CC1`: the GI50 in experiment [1] was 26.3 µM; in experiment [2] it was 20.5 µM; in experiment [3], 30.4 µM; in experiment [4] it was 21.6 µM; in [5], above 100 µM; in experiment [6], 51 µM. For the same molecule, the values for the GI50 in experiment [8], in [9] and in [10] were 48.2 µM, 30 µM and 26.3 µM, respectively. Further, the TGI in [1] is 74.6 µM; in experiment [2] it was 40.2 µM; in experiment [3], 98.6 µM; in [4], 49.8 µM; in [5] it was above 100 µM; in experiment [6], above 100 µM. In addition, the TGI in [8] was above 100 µM; in experiment [9], 84.9 µM; in [10] it was 98.6 µM.
Consider `COc1ccc(SC2c3ccc(C)cc3Oc3nc(N)c(C#N)c(N)c32)cc1` (centres undefined), for which the GI50 is 1.72 µM in experiment [1]; 1.77 µM in experiment [2]; 1.76 µM in experiment [4]; 1.96 µM in [5]; 2.13 µM in [6]; 1.66 µM in experiment [7]. The GI50 was 1.86 µM in [8], 1.6 µM in experiment [9] and 1.56 µM in experiment [10]. The TGI in [1] was 3.3 µM; in experiment [2], 3.15 µM; in experiment [4], 3.41 µM; in [5], 5.61 µM; in experiment [6] it was 4.36 µM; in experiment [7], 3.15 µM. For the same molecule, the TGI in experiment [8] was determined as 3.99 µM; in [9], 3.11 µM; in experiment [10], 2.9 µM.
Consider `CCOc1ccc2nc(-c3cccc(OCC(=O)NC(C)C)c3)nc(Nc3ccc(-c4cn[nH]c4)cc3)c2c1`, for which the GI50 in experiment [1] was 0.834 µM; in experiment [2], 1.17 µM; in experiment [3] it was 0.62 µM; in experiment [4] it was 1.22 µM; in experiment [5] it was 0.319 µM; in [6], 0.34 µM. Also, the GI50 in [7] was 1.53 µM; in experiment [8], 0.661 µM; in experiment [9] it was 0.491 µM. Also, the TGI in experiment [1] is 3.69 µM; in experiment [2], 2.58 µM; in experiment [3], 3.33 µM; in experiment [4], 10.5 µM; in [5] it was above 31.9 µM; in experiment [6], 1.66 µM. In addition, the results for the TGI in [7], in [8] and in [9] were 3.52 µM, 3.41 µM and 2.33 µM, respectively.
In the case of `Cc1ccc(C(=O)N2c3ccccc3N(C)n3cccc3C2CC(=O)O)cc1` (centres undefined), the TGI in experiment [1], in [2], in experiment [3], in experiment [4], in experiment [5] and in [6] was above 100 µM each time. Also, the TGI in [7], in [8] and in experiment [9] was above 100 µM throughout.
